# Reference: US9815796B2 (Merck Sharp & Dohme Corp., priority 2013, dated 2017)
# Where two headings read alike, the source gives them in different places.
# Experiments:
# Rhesus PDE2A3 = Rhesus PDE2A3 (Macaca mulatta, UniProt B3VTJ2); assay: PDE2 fluorescence polarization (IMAP FP) inhibition assay, rhesus enzyme; type: biochemical, rhesus macaque
# How it was run: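 IMAP FP (mP from parallel and perpendicular fluorescence against substrate-only control) was read ≥1 h after adding binding reagent. The preceding 60 min room-temperature reaction contained FAM-cAMP (50 nM) and cGMP (1 uM) in pH 7.2 Tris buffer with MgCl2 and DTT. Enzyme was supernatant of sonicated AD293 cells expressing rhesus PDE2A3; compounds were 3-fold titrated, DMSO 1% final.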
# human PDE2A1 = human PDE2A1 (Homo sapiens (Human), UniProt O00408); assay: IMAP FP PDE selectivity panel, human PDE2A1; type: biochemical
# How it was run: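 IMAP FP format: substrate 50 nM FAM-cAMP plus 1000 nM cGMP, enzyme (insect-cell GST-tagged human PDE2A1) at ~20% conversion, 60 min reaction at room temperature. Apparent inhibition constants calculated from parallel/perpendicular fluorescence with KM 10,000 nM.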
# [1] = Rhesus PDE2, Lab A, read-out: Rhesus PDE2 Ki (nM) - Lab A
# [2] = Human PDE2, Lab A, read-out: Human PDE2 Ki (nM) - Lab A
# [3] = Rhesus PDE2, Lab B, read-out: Rhesus PDE2 Ki (nM) - Lab B
# [4] = Human PDE2, Lab B, read-out: Human PDE2 Ki (nM) - Lab B
# Chain of human PDE2A1 (O00408 other isoform, or with tags, fused parts or gaps): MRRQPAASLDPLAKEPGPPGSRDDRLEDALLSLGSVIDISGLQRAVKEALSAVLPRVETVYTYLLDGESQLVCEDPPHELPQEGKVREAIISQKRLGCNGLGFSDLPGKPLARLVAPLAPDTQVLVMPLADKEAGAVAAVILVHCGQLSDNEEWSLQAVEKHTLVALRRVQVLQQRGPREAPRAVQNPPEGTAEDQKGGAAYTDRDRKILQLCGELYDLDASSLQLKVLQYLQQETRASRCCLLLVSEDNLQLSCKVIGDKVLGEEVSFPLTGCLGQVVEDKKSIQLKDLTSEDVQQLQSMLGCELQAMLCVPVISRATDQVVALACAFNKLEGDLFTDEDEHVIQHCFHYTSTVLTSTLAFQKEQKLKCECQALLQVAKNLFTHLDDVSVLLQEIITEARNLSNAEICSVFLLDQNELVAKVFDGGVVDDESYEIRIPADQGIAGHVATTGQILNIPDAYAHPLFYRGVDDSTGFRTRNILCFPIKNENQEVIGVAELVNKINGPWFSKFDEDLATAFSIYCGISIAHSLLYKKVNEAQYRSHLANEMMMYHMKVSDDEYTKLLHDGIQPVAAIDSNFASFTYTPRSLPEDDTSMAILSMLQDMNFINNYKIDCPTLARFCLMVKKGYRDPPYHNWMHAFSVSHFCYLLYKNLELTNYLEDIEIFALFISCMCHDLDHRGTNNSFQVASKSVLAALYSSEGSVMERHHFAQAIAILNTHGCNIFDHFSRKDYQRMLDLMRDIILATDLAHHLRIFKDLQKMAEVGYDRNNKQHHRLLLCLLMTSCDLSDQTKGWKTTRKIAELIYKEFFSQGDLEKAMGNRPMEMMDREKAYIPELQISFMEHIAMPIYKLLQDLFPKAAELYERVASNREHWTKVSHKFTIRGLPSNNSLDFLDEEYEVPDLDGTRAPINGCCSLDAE
# Chain of Rhesus PDE2A3 (B3VTJ2 1-941): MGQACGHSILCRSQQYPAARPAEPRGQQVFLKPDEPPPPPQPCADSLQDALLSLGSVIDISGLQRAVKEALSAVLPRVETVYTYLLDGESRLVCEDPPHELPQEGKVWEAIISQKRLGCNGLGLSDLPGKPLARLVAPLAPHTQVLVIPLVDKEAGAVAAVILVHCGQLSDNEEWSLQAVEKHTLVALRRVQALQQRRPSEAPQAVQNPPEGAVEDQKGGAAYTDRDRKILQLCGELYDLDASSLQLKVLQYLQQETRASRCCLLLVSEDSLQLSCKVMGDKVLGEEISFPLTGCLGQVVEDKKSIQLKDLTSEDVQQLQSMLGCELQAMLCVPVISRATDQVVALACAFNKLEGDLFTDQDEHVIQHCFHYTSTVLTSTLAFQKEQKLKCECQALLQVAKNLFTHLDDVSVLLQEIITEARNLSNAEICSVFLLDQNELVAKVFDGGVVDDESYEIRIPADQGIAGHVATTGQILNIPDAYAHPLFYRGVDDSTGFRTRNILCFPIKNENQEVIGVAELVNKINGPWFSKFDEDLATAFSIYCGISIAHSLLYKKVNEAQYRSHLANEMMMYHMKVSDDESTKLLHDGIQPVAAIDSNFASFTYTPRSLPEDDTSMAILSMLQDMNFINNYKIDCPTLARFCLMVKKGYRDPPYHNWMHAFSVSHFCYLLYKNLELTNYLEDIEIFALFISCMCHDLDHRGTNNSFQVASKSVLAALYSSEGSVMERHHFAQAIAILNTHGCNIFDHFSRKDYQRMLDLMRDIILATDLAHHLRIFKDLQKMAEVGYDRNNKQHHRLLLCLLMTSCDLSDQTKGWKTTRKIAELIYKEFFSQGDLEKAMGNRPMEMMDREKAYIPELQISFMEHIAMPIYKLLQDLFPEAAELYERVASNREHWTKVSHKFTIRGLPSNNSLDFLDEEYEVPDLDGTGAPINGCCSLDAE
Ki (Rhesus PDE2A3; [1]),Ki (human PDE2A1; [2]),Ki (Rhesus PDE2A3; [3]),Ki (human PDE2A1; [4]),Structure (SMILES)
16 nM,9.2 nM,,,"CC(C)(NC(=O)c1cc(=O)[nH]c(C2CC2)n1)c1ccc(C(F)(F)F)c(F)c1 [Example 200, 2-cyclopropyl-N-{1-[3-fluoro-4-(trifluoromethyl)phenyl]-1-methylethyl}-6-oxo-1,6-dihydropyrimidine-4-carboxamide]"
4.4 nM,2.8 nM,,,O=C(NC1(c2ccc(OC(F)(F)F)c(F)c2)CC1)c1cc(=O)[nH]c(C2CC2)n1 [Example 201]
7.3 nM,3 nM,,,"O=C(NC1(c2ccc(C(F)(F)F)c(F)c2)CC1)c1cc(=O)[nH]c(C2CC2)n1 [Example 202, 2-cyclopropyl-N-{1-[3-fluoro-4-(trifluoromethyl)phenyl]cyclopropyl}-6-oxo-1,6-dihydropyrimidine-4-carboxamide]"
37 nM,20 nM,,,"O=C(NC1(c2ccc(SC(F)(F)F)cc2)CCC1)c1cc(=O)[nH]c(C2CC2)n1 [Example 204, 2-cyclopropyl-6-oxo-N-(1-{4-[(trifluoromethyl)sulfanyl]phenyl}cyclobutyl)-1,6-dihydropyrimidine-4-carboxamide]"
5.8 nM,2.6 nM,,,CC[C@@H](NC(=O)c1cc(=O)[nH]c(C2CC2)n1)c1ccc(OC(F)(F)F)c(F)c1 [Example 207]
6 nM,3 nM,,,"O=C(N[C@@H](c1ccc(C(F)(F)F)c(F)c1)C1CC1)c1cc(=O)[nH]c(C2CC2)n1 [Example 210, 2-cyclopropyl-N-{(R)-cyclopropyl[3-fluoro-4-(trifluoromethyl)phenyl]methyl}-6-oxo-1,6-dihydropyrimidine-4-carboxamide]"
7.1 nM,2.5 nM,,,"O=C(N[C@@H](c1ccc(OC(F)(F)F)cc1)C1CC1)c1cc(=O)[nH]c(C2CC2)n1 [Example 211, 2-cyclopropyl-N-{(R)-cyclopropyl[4-(trifluoromethoxy)phenyl]methyl}-6-oxo-1,6-dihydropyrimidine-4-carboxamide]"
6.1 nM,2.6 nM,,,O=C(N[C@@H](c1ccc(OC(F)(F)F)c(F)c1)C1CC1)c1cc(=O)[nH]c(C2CC2)n1 [Example 212]
6.1 nM,3.3 nM,,,"O=C(N[C@@H](c1ccc(C(F)(F)F)cc1)C1CC1)c1cc(=O)[nH]c(C2CC2)n1 [Example 213, 2-cyclopropyl-N-{(R)-cyclopropyl[4-(trifluoromethyl)phenyl]methyl}-6-oxo-1,6-dihydropyrimidine-4-carboxamide]"
5 nM,2.4 nM,,,"O=C(N[C@@H](c1ccc(SC(F)(F)F)cc1)C1CC1)c1cc(=O)[nH]c(C2CC2)n1 [Example 214, 2-cyclopropyl-N-[(R)-cyclopropyl{4-[(trifluoromethyl)sulfanyl]phenyl}methyl]-6-oxo-1,6-dihydropyrimidine-4-carboxamide]"
29 nM,14 nM,,,"C[C@@H](NC(=O)c1cc(=O)[nH]c(C2CC2)n1)c1ccc(CC(F)(F)F)cc1 [Example 217, 2-cyclopropyl-6-oxo-N-{(1R)-1-[4-(2,2,2-trifluoroethyl)phenyl]ethyl}-1,6-dihydropyrimidine-4-carboxamide]"
104 nM,56 nM,,,"C[C@@H](NC(=O)c1cc(=O)[nH]c(C2CC2)n1)c1cc(F)c(C(F)(F)F)c(F)c1 [Example 218, 2-cyclopropyl-N-{(1R)-1-[3,5-difluoro-4-(trifluoromethyl)phenyl]ethyl}-6-oxo-1,6-dihydropyrimidine-4-carboxamide]"
43 nM,31 nM,,,"COc1cc(C(F)(F)F)ccc1[C@@H](C)NC(=O)c1cc(=O)[nH]c(C2CC2)n1 [Example 219, 2-cyclopropyl-N-{(1R)-1-[2-methoxy-4-(trifluoromethyl)phenyl]ethyl}-6-oxo-1,6-dihydropyrimidine-4-carboxamide]"
89 nM,45 nM,,,"CC(C)(NC(=O)c1cc(=O)[nH]c(C2CC2)n1)c1ccc(SC(F)(F)F)cc1 [Example 222, 2-cyclopropyl-N-(1-methyl-1-{4-[(trifluoromethyl)sulfanyl]phenyl}ethyl)-6-oxo-1,6-dihydropyrimidine-4-carboxamide]"
40 nM,20 nM,,,"C[C@@H](NC(=O)c1cc(=O)[nH]c(C2CC2)n1)c1ccc2ccccc2c1 [Example 224, 2-cyclopropyl-N-[(1R)-1-naphthalen-2-ylethyl]-6-oxo-1,6-dihydropyrimidine-4-carboxamide]"
8.3 nM,4.6 nM,,,"CC[C@@H](NC(=O)c1cc(=O)[nH]c(C2CC2)n1)c1ccc(OC(F)(F)F)cc1 [Example 225, 2-cyclopropyl-6-oxo-N-{(1R)-1-[4-(trifluoromethoxy)phenyl]propyl}-1,6-dihydropyrimidine-4-carboxamide]"
12 nM,6.5 nM,,,"C[C@@H](NC(=O)c1cc(=O)[nH]c(C2CC2)n1)c1ccc(S(F)(F)(F)(F)F)cc1 [Example 227, 2-cyclopropyl-6-oxo-N-{(1R)-1-[4-(pentafluoro-λ^6-sulfanyl)phenyl]ethyl}-1,6-dihydropyrimidine-4-carboxamide]"
25 nM,11 nM,,,"COc1cc(OC(F)(F)F)ccc1C(C)NC(=O)c1cc(=O)[nH]c(C2CC2)n1 (centres unmarked) [Example 230, 2-cyclopropyl-N-{1-[2-methoxy-4-(trifluoromethoxy)phenyl]ethyl}-6-oxo-1,6-dihydropyrimidine-4-carboxamide]"
39 nM,23 nM,,,"Cc1cc([C@@H](C)NC(=O)c2cc(=O)[nH]c(C3CC3)n2)ccc1C(F)(F)F [Example 231, 2-cyclopropyl-N-{(1R)-1-[3-methyl-4-(trifluoromethyl)phenyl]ethyl}-6-oxo-1,6-dihydropyrimidine-4-carboxamide]"
29 nM,17 nM,,,"C[C@@H](NC(=O)c1cc(=O)[nH]c(C2CC2)n1)c1ccc(C(F)(F)F)c(Cl)c1 [Example 232, N-{(1R)-1-[3-chloro-4-(trifluoromethyl)phenyl]ethyl}-2-cyclopropyl-6-oxo-1,6-dihydropyrimidine-4-carboxamide]"
124 nM,78 nM,,,"CC(NC(=O)c1cc(=O)[nH]c(C2CC2)n1)c1ccc(C(F)(F)F)cc1Cl (centres unmarked) [Example 233, N-{1-[2-chloro-4-(trifluoromethyl)phenyl]ethyl}-2-cydopropyl-6-oxo-1,6-dihydropyrimidine-4-carboxamide]"
20 nM,18 nM,,,"C[C@@H](NC(=O)c1cc(=O)[nH]c(C2CC2)n1)c1ccc(C(F)(F)F)c(F)c1 [Example 234, 2-cyclopropyl-N-{(1R)-1-[3-fluoro-4-(trifluoromethyl)phenyl]ethyl}-6-oxo-1,6-dihydropyrimidine-4-carboxamide]"
4.3 nM,5.5 nM,,,"CC[C@@H](NC(=O)c1cc(=O)[nH]c(C2CC2)n1)c1ccc(SC(F)(F)F)cc1 [Example 236, 2-cyclopropyl-6-oxo-N-[(1R)-1-{4-[(trifluoromethyl)sulfanyl]phenyl}propyl]-1,6-dihydropyrimidine-4-carboxamide]"
61 nM,35 nM,,,"C[C@@H](NC(=O)c1cc(=O)[nH]c(C2CC2)n1)c1ccc(C(F)(F)F)cc1F [Example 237, 2-cyclopropyl-N-{(1R)-1-[2-fluoro-4-(trifluoromethyl)phenyl]ethyl}-6-oxo-1,6-dihydropyrimidine-4-carboxamide]"
14 nM,8.8 nM,,,"Cc1nc(C(=O)N[C@@H](c2ccc(C(F)(F)F)c(F)c2)C(C)C)cc(=O)[nH]1 [Example 240, N-{(1R)-1-[3-fluoro-4-(trifluoromethyl)phenyl]-2-methylpropyl}-2-methyl-6-oxo-1,6-dihydropyrimidine-4-carboxamide]"
5 nM,,10 nM,9.2 nM,"CC[C@@H](NC(=O)c1cc(=O)[nH]c(C2CC2)n1)c1ccc(S(F)(F)(F)(F)F)cc1 [Example 242, 2-cyclopropyl-6-oxo-N-{(1R)-1-[4-(pentafluoro-λ^6-sulfanyl)phenyl]propyl}-1,6-dihydropyrimidine-4-carboxamide]"
3.6 nM,,6.7 nM,5.8 nM,"C[C@@H](NC(=O)c1cc(=O)[nH]c(C2CC2)n1)c1ccc(SC(F)(F)F)c(F)c1 [Example 243, 2-cyclopropyl-N-[(1R)-1-{3-fluoro-4-[(trifluoromethyl)sulfanyl]phenyl}ethyl]-6-oxo-1,6-dihydropyrimidine-4-carboxamide]"
0.99 nM,,2.4 nM,3 nM,"CC(C)[C@@H](NC(=O)c1cc(=O)[nH]c(C2CC2)n1)c1ccc(SC(F)(F)F)c(F)c1 [Example 244, 2-cyclopropyl-N-[(1R)-1-{3-fluoro-4-[(trifluoromethyl)sulfanyl]phenyl}-2-methylpropyl]-6-oxo-1,6-dihydropyrimidine-4-carboxamide]"
1.4 nM,,1.3 nM,1.3 nM,"CC(C)[C@@H](NC(=O)c1cc(=O)[nH]c(-c2ncccn2)n1)c1ccc(SC(F)(F)F)c(F)c1 [Example 245, N-[(1R)-1-{3-fluoro-4-[(trifluoromethyl)sulfanyl]phenyl}-2-methylpropyl]-6-oxo-1,6-dihydro-2,2′-bipyrimidine-4-carboxamide]"
3.1 nM,,5.4 nM,5.2 nM,"CC[C@@H](NC(=O)c1cc(=O)[nH]c(C2CC2)n1)c1ccc(SC(F)(F)F)c(F)c1 [Example 246, 2-cyclopropyl-N-[(1R)-1-{3-fluoro-4-[(trifluoromethyl)sulfanyl]phenyl}propyl]-6-oxo-1,6-dihydropyrimidine-4-carboxamide]"
